For test [1], the system named is brain. The experiment in a line: Antiprion activity against Scrapie prion protein-infected mouse brain cells assessed as remaining PrP-res level at 100 uM after 4 days by Western blotting relative to control. Type of test: tissue-based. (In general: Immunoblotting shows a protein as a band on a membrane.)
The target of test [2] is Major prion protein (Mus musculus) (UniProt P04925). Nature of the test: Inhibition of manganese-induced aggregation in mouse recombinant PrP assessed as PrP-res formation at 100 uM after 30 mins relative to control. Set-up: scale not given: the % may be the effect or the level left.
Test [3] deals with brain. Nature of the test: Antiprion activity against Scrapie prion protein-infected mouse brain cells assessed as remaining PrP-res level at 10 uM after 4 days by Western blotting relative to control. The class given is tissue-based.
In test [4] the target is Major prion protein (Mus musculus) (UniProt P04925). Nature of the test: Inhibition of mouse recombinant PrP interaction with scrapie mouse brain PrP-res assessed as PrP-res formation at 100 uM after 30 mins by aggregation assay relative to control.

Peptide text beside a SMILES is read from it.

Sequence of Major prion protein (Mus musculus) (P04925 whole entry): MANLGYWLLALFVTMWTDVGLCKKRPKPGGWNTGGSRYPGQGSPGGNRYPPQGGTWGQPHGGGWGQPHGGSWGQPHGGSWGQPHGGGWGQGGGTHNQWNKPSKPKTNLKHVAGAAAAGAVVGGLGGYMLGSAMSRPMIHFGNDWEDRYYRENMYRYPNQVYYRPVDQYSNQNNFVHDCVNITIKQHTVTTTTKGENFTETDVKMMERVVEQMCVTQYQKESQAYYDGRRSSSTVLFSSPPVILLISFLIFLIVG

For H-KHAAPAAAAGA-NH2, the figures for the Activity (with brain [1]; in test [2]) were 70% and 73%, respectively.
The matching figures for `C[C@H](NC(=O)[C@@H]1CCCN1C(=O)[C@H](C)NC(=O)CN)C(=O)O` (H-GAPA-OH): 47% and 266%.
As for H-PAGAAAAG-NH2, the Activity turned out to be 10% in the test on brain [1] and 130% in test [2]. Further, the Remaining PrP-res level with brain [3] stood at 158%.
On to `C[C@H](NC(=O)[C@@H](C)N)C(=O)N1CCC[C@H]1C(=O)NCC(N)=O`, for which the Activity worked out at 100% in the test on brain [1] and 88% in test [2].
For the compound H-PAGAAAPGA-NH2, the results for the Activity (in the test with brain [1]; in test [2]) were 79% and 56%, respectively.
`C[C@H](NC(=O)[C@H](C)NC(=O)[C@H](C)NC(=O)[C@H](C)NC(=O)[C@@H]1CCCN1C(=O)[C@H](C)NC(=O)[C@@H](C)N)C(=O)NCC(N)=O`: the Activity with brain [1] turned out to be 128%; in test [2], 46%. Moreover, in test [4], the PrP-res formation relative to control was determined as 46%.
On to H-KHAAGAAAAGA-NH2, for which the values for the Activity (with brain [1]; in test [2]) were 59% and 102%, respectively.
For `CC(C)[C@H](NC(=O)[C@@H](NC(=O)[C@H](C)NC(=O)CNC(=O)[C@@H]1CCCN1C(=O)[C@H](C)NC(=O)[C@H](C)NC(=O)[C@H](C)NC(=O)CNC(=O)[C@H](C)NC(=O)[C@@H](C)N)C(C)C)C(N)=O`, the figures for the Activity (in the test on brain [1]; in test [2]) were 5% and 52%, respectively. Besides, the PrP-res formation relative to control in test [4] was determined as 52%. Moreover, in the test on brain [3], the Remaining PrP-res level was 73%.
With H-GAAPPG-NH2, the Activity with brain [1] came out at 5%; in test [2], 240%.
Regarding `C[C@H](NC(=O)[C@@H]1CCCN1C(=O)[C@@H]1CCCN1)C(N)=O` (H-Pro-Pro-Ala-NH2), the Activity in the test on brain [1] was determined as 10%; in test [2], 125%.
As to `C[C@H](NC(=O)[C@H](C)NC(=O)[C@@H]1CCCN1)C(N)=O` (H-Pro-Ala-Ala-NH2), the Activity amounted to 51% in the test with brain [1] and 88% in test [2].
For `C[C@H](NC(=O)CNC(=O)[C@H](C)NC(=O)[C@@H](C)N)C(=O)N[C@@H](C)C(=O)N[C@@H](C)C(=O)N1CCC[C@H]1C(=O)NCC(=O)N1CCC[C@H]1C(N)=O` the same measures were 88% and 27%.
As to H-GAAAPP-NH2, the Activity with brain [1] worked out at 30%; in test [2] it was 148%.
The matching figures for `CC(C)[C@H](NC(=O)[C@H](C)NC(=O)CNC(=O)[C@@H]1CCCN1C(=O)[C@H](C)NC(=O)[C@H](C)NC(=O)[C@H](C)NC(=O)CNC(=O)[C@H](C)NC(=O)[C@@H](C)N)C(N)=O`: 129% and 54%.
In the case of H-MLGSAPSR-NH2, the Activity came out at 61% in the test with brain [1] and 1% in test [2].
For H-HAAGAAAPGAV-NH2 the same measures were 32% and 64%.
In the case of H-AAGAAAA-NH2, the Activity with brain [1] turned out to be 65%.
Turning to H-GAPAPG-NH2, the Activity in the test on brain [1] was determined as 52%; in test [2], 85%.
The matching figures for H-HAAPAAAAGAV-NH2: 225% and 38%.
As to `C[C@H](NC(=O)CNC(=O)[C@H](C)NC(=O)[C@@H](C)N)C(=O)N[C@@H](C)C(=O)N[C@@H](C)C(=O)N1CCC[C@H]1C(=O)NCC(N)=O`, the Activity amounted to 108% in the test on brain [1] and 2% in test [2]. In test [4], the PrP-res formation relative to control was found to be 2%.
Regarding H-HAAGAAAAGAV-NH2, the Activity turned out to be 74% in the test with brain [1] and 34% in test [2].
For the compound H-KHAAGAAAAGAVV-NH2, the values for the Activity (in the test on brain [1]; in test [2]) were 93% and 112%, respectively.
Consider H-KHAAGAAAPGA-NH2, for which the figures for the Activity (with brain [1]; in test [2]) were 44% and 52%, respectively.
For the compound `C[C@H](NC(=O)CNC(=O)[C@@H]1CCCN1C(=O)[C@H](C)NC(=O)[C@H](C)NC(=O)[C@H](C)NC(=O)CNC(=O)[C@H](C)NC(=O)[C@@H](C)N)C(N)=O`, the Activity with brain [1] came out at 81%; in test [2], 27%.
With H-AAGAAAAG-NH2, the figures for the Activity (with brain [1]; in test [2]) were 108% and 23%, respectively. In test [4], the PrP-res formation relative to control was determined as 23%.
`CC(C)[C@H](NC(=O)[C@H](C)NC(=O)CNC(=O)[C@H](C)NC(=O)[C@H](C)NC(=O)[C@H](C)NC(=O)[C@H](C)NC(=O)[C@@H]1CCCN1C(=O)[C@H](C)NC(=O)[C@@H](C)N)C(N)=O`: the figures for the Activity (in the test on brain [1]; in test [2]) were 148% and 28%, respectively.
Turning to H-HAAPAAAAGA-NH2, the Activity in the test on brain [1] is 151%; in test [2], 93%.
For the compound `C[C@H](NC(=O)CNC(=O)[C@@H]1CCCN1C(=O)[C@H](C)NC(=O)[C@H](C)NC(=O)[C@H](C)NC(=O)CNC(=O)[C@@H]1CCCN1C(=O)[C@@H](C)N)C(N)=O`, the Activity worked out at 7% with brain [1] and 89% in test [2].
For H-GPAAPG-NH2 the same measures were 261% and 48%.
For `C[C@H](NC(=O)CN)C(=O)N1CCC[C@H]1C(N)=O` (H-Gly-Ala-Pro-NH2) the same measures were 32% and 111%.
In the case of `C[C@H](NC(=O)CNC(=O)[C@H](C)NC(=O)[C@H](C)NC(=O)[C@H](C)NC(=O)[C@H](C)NC(=O)[C@@H]1CCCN1C(=O)[C@H](C)NC(=O)[C@@H](C)N)C(N)=O`, the Activity with brain [1] is 66%; in test [2], 103%.
The matching figures for `NC(=O)CNC(=O)[C@@H]1CCCN1C(=O)[C@@H]1CCCN1` (H-Pro-Pro-Gly-NH2): 48% and 96%.
Regarding H-PAGAAAA-NH2, the Activity in the test on brain [1] amounted to 71%.
In the case of `C[C@H](NC(=O)[C@H](C)NC(=O)[C@H](C)NC(=O)[C@H](C)NC(=O)[C@@H]1CCCN1C(=O)[C@H](C)NC(=O)[C@@H](C)N)C(N)=O`, the figures for the Activity (in the test on brain [1]; in test [2]) were 195% and 2%, respectively. Moreover, the PrP-res formation relative to control in test [4] was 2%.
As for H-HAAGAAAPGA-NH2, the Activity in the test with brain [1] is 183%; in test [2], 28%.
The matching figures for `C[C@H](NC(=O)[C@@H]1CCCN1)C(=O)N1CCC[C@H]1C(N)=O` (H-Pro-Ala-Pro-NH2): 156% and 59%.
On to `C[C@H](NC(=O)CNC(=O)[C@H](C)NC(=O)[C@@H](C)N)C(=O)N[C@@H](C)C(=O)N[C@@H](C)C(=O)N1CCC[C@H]1C(N)=O`, for which the Activity in the test with brain [1] was 206%.
Regarding H-MAGAAAAGA-NH2, the figures for the Activity (in the test with brain [1]; in test [2]) were 89% and 104%, respectively.
Regarding H-PAGAAAAGAVV-NH2, the Activity was 132% in the test on brain [1] and 28% in test [2]. Besides, the PrP-res formation relative to control in test [4] worked out at 28%.
Turning to H-PAGAAAAGAV-NH2, the Activity with brain [1] came to 112%; in test [2] it was 77%.
For H-AAGAAAAGA-NH2 the same measures were 56% and 76%.
On to `CC(C)[C@H](NC(=O)[C@@H](NC(=O)[C@H](C)NC(=O)CNC(=O)[C@H](C)NC(=O)[C@H](C)NC(=O)[C@H](C)NC(=O)[C@H](C)NC(=O)[C@@H]1CCCN1C(=O)[C@H](C)NC(=O)[C@@H](C)N)C(C)C)C(N)=O`, for which the Activity with brain [1] was found to be 14%; in test [2], 22%. Moreover, the PrP-res formation relative to control in test [4] was determined as 22%. The Remaining PrP-res level in the test with brain [3] came out at 131%.
With H-HPAGAAAAGAV-NH2, the figures for the Activity (in the test with brain [1]; in test [2]) were 135% and 74%, respectively.
As to H-AAGAAAAGAVV-NH2, the Activity is 34% in the test on brain [1] and 17% in test [2]. For the same compound, the PrP-res formation relative to control in test [4] worked out at 17%. For the same compound, the Remaining PrP-res level with brain [3] came out at 200%.
Consider H-KHAAPAAAAGAVV-NH2, for which the Activity in the test with brain [1] was 68%; in test [2], 44%. Besides, in test [4], the PrP-res formation relative to control was 44%.
H-HPAGAAAAGA-NH2: the values for the Activity (with brain [1]; in test [2]) were 23% and 11%, respectively. For the same compound, the PrP-res formation relative to control in test [4] is 11%.
Consider `C[C@H](NC(=O)CNC(=O)[C@@H]1CCCN1C(=O)[C@H](C)NC(=O)[C@H](C)NC(=O)[C@H](C)NC(=O)[C@@H]1CCCN1C(=O)[C@H](C)NC(=O)[C@@H](C)N)C(N)=O`, for which the Activity in the test with brain [1] was determined as 33%; in test [2], 85%.
For H-HAAGAAAAGA-NH2, the Activity worked out at 39% in the test on brain [1] and 59% in test [2].
For H-KHPAGAAAAGAVV-NH2 the same measures were 68% and 73%.
The matching figures for H-GAAAPG-NH2: 124% and 111%.
Turning to `C[C@H](NC(=O)[C@@H]1CCCN1C(=O)[C@@H](C)N)C(N)=O`, the Activity in the test on brain [1] was 45%; in test [2], 148%.
The matching figures for H-VAGAAAAGA-NH2: 93% and 84%.
Take H-AAGAAAAGAV-NH2: the results for the Activity (in the test with brain [1]; in test [2]) were 133% and 57%, respectively.
Consider H-KHAAGAAAPGAVV-NH2, for which the Activity stood at 7% in the test on brain [1] and 86% in test [2]. Also, the Remaining PrP-res level in the test with brain [3] came to 108%.
With `NCC(=O)N1CCC[C@H]1C(=O)N1CCC[C@H]1C(N)=O` (H-Gly-Pro-Pro-NH2), the Activity in the test with brain [1] is 25%; in test [2], 81%.
For H-KHPAGAAAAGA-NH2 the same measures were 83% and 19%.
For H-PAGAAAAGA-NH2 the same measures were 100% and 71%.
The matching figures for H-PLGSAMSR-NH2: 45% and 11%.

Source of the values: ChEMBL document CHEMBL1140991, “Synthesis and testing of peptides for anti-prion activity” (Eur J Med Chem, 2008).
